Measured values reported in US10253060B2, “Terpenoid derivatives” (Daiichi Sankyo Company, Limited, priority 2013, dated 2019).

Tests used:
[1] = tested on: Nqo1 gene; assay: Effect of inducing Nrf2 target gene (in vivo): Nqo1 gene expression in mouse kidney after oral administration; set-up: species or system C57 Black 6 mouse; settings: for Nqo1 gene expression level: solvent group defined as 1, mean ± SD, 6 mice; for induction of the Nqo1 gene (in words): oral, derivative B at a dose of 1 mg/kg
Method: The Nqo1 gene was used as the Nrf2 target gene.
Respective suspensions of terpenoid derivative B of the present invention obtained in Example 1 and CDDO-Me were prepared using 0.5 w/v % methylcellulose solution 400 cP (Wako Pure Chemical Industries, Ltd., catalog No. 133-14255) as a solvent. Each suspension was orally administered once a day for 12 consecutive days at a dose of 1, 3, or 10 mg/kg with administration volume of 10 mL/kg to each C57 Black 6 mouse (Charles River Laboratories Japan, Inc., male, 8 weeks old at the time of receipt, 10 weeks old at the start of the experiment). On the next day of the final administration, the mouse was euthanized, and the kidney was sampled. From the sampled kidney, mRNA was collected using an extraction kit (manufactured by Qiagen N.V., RNeasy Mini Kit, catalog No. 74106). From the obtained mRNA, cDNA was prepared using a cDNA synthesis kit (manufactured by GE Healthcare Life Sciences, First-Strand cDNA Synthesis Kit). The obtained cDNA was amplified using a reagent (manufactured by Applied Biosystems, Inc., TaqMan(R) Gene Expression Master Mix (catalog No. 4369016)) and a probe, and subjected to real-time quantitative PCR (Real-time PCR HT7900 manufactured by Applied Biosystems, Inc. was used). […] Each group consisted of 6 mice and was indicated as a mean and standard deviation.

[2] = tested on: ARPE-19 cells; assay: Cytotoxicity, LDH-Cytotoxic Test in ARPE-19 cells; assay type: cell-based, human; settings: 10 μM, approx. 16 hours, 3 wells
Method: ARPE-19 cells (human retinal pigment epithelium cell line, ATCC, catalog No. CRL-2302) were cultured (5% CO2, 37° C.). A DMEM/F12 (Life Technologies Japan Ltd., catalog No. 11330-032) mixed medium containing 10% inactivated FBS was used. The medium contained 100 units/mL (final concentration) penicillin and 100 μg/[…] (final concentration) streptomycin.
The ARPE-19 cells were seeded at 5000 cells/well in a 96-well plate. The amount of the medium was 50 μL. Approximately 3 hours later, 50 μL of a medium containing CDDO-Me or each of terpenoid derivatives A to H was added thereto, followed by culture for approximately 16 hours. Then, cytotoxicity was evaluated using LDH-Cytotoxic Test (Wako Pure Chemical Industries, Ltd., catalog No. 299-50601). The evaluation method followed the attached document. Each group consisted of 3 wells and was indicated as cytotoxicity at the concentration of 10 μM. The means thereof were 43% for CDDO-Me, 2% for terpenoid derivative A, 2% for terpenoid derivative B, 2% for terpenoid derivative C, 1% for terpenoid derivative D, 2% for terpenoid derivative E, 3% for terpenoid derivative F, 3% for terpenoid derivative G, and 1% for terpenoid derivative H. Terpenoid derivatives A to H were low in cytotoxicity as compared with CDDO-Me.

[3] = tested on: oxygen-induced retinopathy in rat; assay: Inhibitory effect on oxygen-induced retinopathy in rat (in vivo); set-up: species or system SD rat; settings: for Score of pathological condition of retina: rat newborns, oxygen load present, seven times, mean ± SD
Method: SD rat newborns (Charles River Laboratories Japan, Inc., pregnant rats were received) were used in the experiment. From the ages of 1 day to 12 days, the newborns were raised under approximately 80% oxygen with the mother rats. The newborns were raised under the atmosphere from the age of 13 days. A suspension of the terpenoid derivative B was prepared using a 0.5 w/v % methylcellulose solution 400 cP (Wako Pure Chemical Industries, Ltd., catalog No. 133-14255) as a solvent. The suspension was orally administered once a day from the ages of 11 days to 17 days, a total of seven times, at a dose of 0.03, 0.1, or 0.3 mpk with administration volume of 10 mL/kg. On the next day of the final […], the newborn rats were euthanized, and the retina was sampled. The pathological condition of the retina was scored according to the literature (Invest Ophthalmol Vis Sci 2000; 41: 887-). Each group consisted of 14 to 30 eyes and was indicated as a mean and standard deviation.

[4] = 1 mg/kg oral once a day for 12 days
[5] = 3 mg/kg oral once a day for 12 days
[6] = 10 mg/kg oral once a day for 12 days

COC(=O)[C@@]12CC[C@]3(C)[C@H](C(=O)C=C4[C@@]5(C)[C@H]6O[C@@]6(C#N)C(=O)C(C)(C)[C@@H]5CC[C@]43C)[C@@H]1CC(C)(C)[C@@H](O)C2 [terpenoid derivative B]
Nqo1 gene expression level [1, 4]: 1.2 ± 0.1
Nqo1 gene expression level [1, 5]: 1.8 ± 0.2
Nqo1 gene expression level [1, 6]: 2.3 ± 0.2
induction of the Nqo1 gene (in words) [1]: confirmed to induce the Nqo1 gene
cytotoxicity (LDH-Cytotoxic Test), mean [2]: 2%
Score of pathological condition of retina ([3]; 0.03 mg/kg oral once a day): 3.93 ± 0.79
Score of pathological condition of retina ([3]; 0.1 mg/kg oral once a day): 3.54 ± 0.48
Score of pathological condition of retina ([3]; 0.3 mg/kg oral once a day): 2.57 ± 0.35
effect on score of the pathological condition of the retina (in words) ([3]; rat oxygen-induced retinopathy, oral 0.03 to 0.3 mg/kg): suppressed the score of the pathological condition of the retina in a dose-dependent manner

COC(=O)[C@]12CCC(C)(C)C[C@H]1[C@H]1C(=O)C=C3[C@@]4(C)C=C(C#N)C(=O)C(C)(C)[C@@H]4CC[C@@]3(C)[C@]1(C)CC2 [CDDO-Me, methyl 2-cyano-3,12-dioxooleana-1,9-dien-28-oate, reference compound]
Nqo1 gene expression level [1, 4]: 1.0 ± 0.0
Nqo1 gene expression level [1, 5]: 1.0 ± 0.1
Nqo1 gene expression level [1, 6]: 1.0 ± 0.1
induction of the Nqo1 gene (in words) [1]: not confirmed to induce the Nqo1 gene
cytotoxicity (LDH-Cytotoxic Test), mean [2]: 43%
